The values that follow come from patent US5834318A, “Screening of combinatorial peptide libraries for selection of peptide ligand useful in affinity purification of target proteins” (Bayer Corporation, priority 1995, dated 1998).

Where no end group is shown, it is not given here.

The target in assay [1] is T1, human serum albumin (HSA) (Homo sapiens, UniProt P02768).
T1 construct: purchased Miles, Inc., Clayton, N.C
The assay is described as follows: Binding of carrier protein to peptide-resin column. Conditions: 0.5% HSA; eluted by the salt wash, no peak during acid elution. How it is done:
(§1) Affinity Purification of Target Protein Affinity purification of target protein was used to assess the ability to purify proteins with the peptide sequences identified as being specific. […] The deprotected peptide-resin was dry packed into a blank column as described above and washed with 20 column volumes of 20% methanol/water, then 10 column volumes of Buffer A, and assayed by sequential 1.0 mL injections of 1) Buffer A blank, 2) 0.5% HSA, and 3) target protein in 0.5% HSA. Non-specifically bound proteins were washed off the column in a step gradient of 1.0M NaCl for two column volumes, and the target protein was eluted from the column in a weak acid solution.
(§2) Factor IX/Albumin Affinity Purification The library-derived peptide identified above binds and purifies a mixture of a commercially available, highly purified Factor IX zymogen in a solution of human serum albumin. […] This peptide-resin was tested for its ability to bind Factor IX. […] However, this was eluted by the salt wash as evidenced by the absence of a peak during the acid elution. In contrast, when Factor IX was added to the HSA, there was a distinct peak eluted by the acid.

In assay [2] the target is T2, Factor IX zymogen (Homo sapiens, UniProt P00740). The assay is described as follows: Two color peptide library immunostaining chromatography of hexamer library. Format: binding. Details: purchased Enzyme Research Labs; South Bend, Ind. Conditions: 6 beads isolated from two independent analyses. How it is done:
(§3) HPLC Library Immuno-Assays To differentiate between detecting reagent-binding and target-binding peptide-resin beads, we developed a two color peptide library staining chromatography technique. FIG. 1 is a schematic of the preferred embodiment of the technique. All assays were performed on an Ultrafast Microprotein Analyzer in a 2.1 mm I.D.×150mm long stainless steel column (volume=520 μL) at 37° C. Dry library resin was packed into the column by vacuum, then the column was attached to the detector flow cell and washed with 20 column volumes of 20% methanol/water, 5 column volumes of 100% Buffer A (10 mM HEPES, 100 mM NaCl, 2.5 mM CaCl2, 20 mg/mL D-mannitol; all from Sigma Chemical Co.; St. Louis, Mo.), then 5 column volumes of 50% Buffer B (Buffer A with 1.0M NaCl) to clean the resin. The complete assay comprised of seven chromatography injection programs sequentially linked and executed as a batch (EXChrom Chromatography Data System, Scientific Software, Inc.; San Ramon, Calif.). Each injection program was 90 min long. At the start of each injection program, a 1.0 mL sample loop of reagent was injected at 200 μL/min for 3.5 min, then allowed to perfuse the column at 5 μL/min for 50 min before the flow increased to 400/μL/min for the duration of the run. At 60-75 min, a salt gradient from 0.1M to 1.0M NaCl eluted non-specific binding proteins. […]

For assay [3], the target named is T2, Factor IX zymogen. The assay is described as follows: Plasma-derived Factor IX affinity chromatography. Format: binding. The arrangement: A 1.0 ml injection of human citrated plasma was contacted with an acetyl-YANKGY-TSK column; from tissue; host or cells: human citrated plasma. Conditions: 1.0 ml human citrated plasma. How it is done:
as §1
Plasma-Derived Factor IX Affinity Chromatography The relevance of this library-derived peptide ligand is to purify human Factor IX zymogen from unpurified human plasma. A 1.0 ml injection of human citrated plasma was contacted with an acetyl-YANKGY-TSK column in the manner taught in the above example. Flow through and acid peaks were collected on ice and immediately assayed for total protein, SDS-PAGE and Western blot analyses. […] Samples were normalized to total protein as described before. There are numerous protein bands in the starting material, the predominant being albumin. The Factor IX band is not visible in any fraction in the Commassie stained gel. […] With one pass over the YANKGY-TSK affinity column, analyzing total protein and by Western blot, the approximate purification was 200 fold from plasma.

The target in assay [4] is T2, Factor IX zymogen. The assay is described as follows: Factor IX/albumin affinity purification on peptide-resin column. In kind it is binding. Details: purchased Enzyme Research Labs; South Bend, Ind. How it is done: as §1, §2
A direct correlation was seen between the acid peak area and the amount of Factor IX injected. […] Aliquots of fractions taken from this run were assayed for Factor IX detection by ELISA (data not shown). […] Factor IX may be partially denatured during the acid elution which could account for the lack of full recovery based on ELISA results. Indeed, controls of adding acid to Factor IX prior to analysis in the ELISA do show a 40 to 50% decrease in the ELISA signal. The remainder of the fractions were precipitated in cold (-20° C.) acetone and analyzed by reducing SDS-PAGE, normalizing sample to total protein.

The next assay deals with streptavidin (Streptomyces avidinii, UniProt P22629). The note with it: well known in the art; cited from earlier work.
The target of assay [5] is T3, Ribonuclease S (RNase S) protein (Bos taurus, UniProt P61823).
T3 sequence (P61823 47-150 limits assumed): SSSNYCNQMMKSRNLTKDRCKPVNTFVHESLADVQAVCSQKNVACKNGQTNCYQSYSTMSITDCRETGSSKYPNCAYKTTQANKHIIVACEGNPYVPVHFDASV
The assay is described as follows: Two color peptide library immunostaining chromatography (HPLC library immunoassay), validation. The note with it: peptide-resin diluted 1:20 w/w with TSK-Blank. Format: binding. The procedure:
as §3

Another assay concerns the target T4, RNase S protein (Bos taurus, UniProt P61823).
T4 sequence (P61823 47-150 limits assumed): T3 sequence (P61823 47-150 limits assumed)
The assay is described as follows: HPLC affinity chromatography validation on peptide-resin. Format: binding. The note with it: 42 nmoles RNase S protein injected; 2 % acetic acid wash, peak at 22 min. How it is done:
as §1
Ribonuclease S Protein Affinity Chromatography In this embodiment the HPLC affinity methodology is validated by the previously described RNase S protein/YNFEVL peptide system. Peptide synthesis was performed as taught in the previous section. […] 42 nmoles of RNase S protein was injected in a 1.0 mL volume onto the column at 200 μL/min for 3 min. The flow was decreased to 5 μL/min for 5 min to perfuse the column, then increased to 400 μL/min to wash off the unbound protein. At 13 min, an injection of 1.0 mL Buffer A with 1.0M NaCl eluted non-specific binding proteins, then the column was returned to 0.1M NaCl until 19 min when a steep gradient to 2 % acetic acid in water and a flow of 800 μL/min began. […]

T2 sequence (P00740 29-461 limits assumed): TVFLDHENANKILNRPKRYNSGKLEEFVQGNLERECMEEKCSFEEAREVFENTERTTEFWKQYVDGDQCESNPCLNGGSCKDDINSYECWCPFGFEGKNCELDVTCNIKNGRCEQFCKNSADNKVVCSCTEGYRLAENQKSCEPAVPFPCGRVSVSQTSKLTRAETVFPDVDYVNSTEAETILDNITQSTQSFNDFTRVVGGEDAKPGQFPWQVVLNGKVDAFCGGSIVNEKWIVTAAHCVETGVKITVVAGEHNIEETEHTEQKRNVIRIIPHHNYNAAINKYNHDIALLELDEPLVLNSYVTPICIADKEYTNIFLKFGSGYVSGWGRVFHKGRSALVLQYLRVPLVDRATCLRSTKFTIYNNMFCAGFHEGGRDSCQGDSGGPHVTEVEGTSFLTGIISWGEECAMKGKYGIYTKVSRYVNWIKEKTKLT
streptavidin, sequence (P22629 25-183, species assumed): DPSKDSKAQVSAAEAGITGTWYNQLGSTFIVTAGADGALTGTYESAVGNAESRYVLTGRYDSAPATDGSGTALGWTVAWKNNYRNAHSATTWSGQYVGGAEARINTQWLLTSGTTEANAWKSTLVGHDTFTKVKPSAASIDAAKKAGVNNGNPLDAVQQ
T1 sequence (P02768 25-609): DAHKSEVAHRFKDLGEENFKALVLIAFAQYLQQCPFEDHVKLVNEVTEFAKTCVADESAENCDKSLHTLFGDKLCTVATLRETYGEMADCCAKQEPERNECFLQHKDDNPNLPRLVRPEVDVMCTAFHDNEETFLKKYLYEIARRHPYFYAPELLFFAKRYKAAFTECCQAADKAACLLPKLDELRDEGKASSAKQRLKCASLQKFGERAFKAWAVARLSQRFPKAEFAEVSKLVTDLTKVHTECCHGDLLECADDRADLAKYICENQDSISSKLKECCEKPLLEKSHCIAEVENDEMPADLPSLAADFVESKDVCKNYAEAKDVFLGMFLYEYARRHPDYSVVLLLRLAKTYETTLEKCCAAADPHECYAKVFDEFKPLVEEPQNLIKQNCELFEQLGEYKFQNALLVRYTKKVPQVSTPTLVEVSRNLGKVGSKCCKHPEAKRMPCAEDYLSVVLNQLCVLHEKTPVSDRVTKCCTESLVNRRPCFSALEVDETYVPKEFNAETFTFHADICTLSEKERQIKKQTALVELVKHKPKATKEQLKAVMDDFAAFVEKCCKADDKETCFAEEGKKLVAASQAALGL

In the case of YANKGY [YANKGY-TSK], the “HSA binding to column” value in assay [1] is “bound to the column to a small extent”. For the same substance, at Factor IX zymogen [2], the “bead staining in library immunoassay (red = target specific)” value is “red bead”. Further, the “approximate purification of Factor IX from plasma” value at Factor IX zymogen [3] (one pass, by total protein and Western blot) is about 200 fold. Also, at Factor IX zymogen [4] (220 μg Factor IX in HSA), the “Factor IX detected in NaCl peak by ELISA, % of amount injected” value stood at 17%; the “Factor IX detected in acid peak by ELISA, % of amount injected” value came out at 25%; the “Factor IX detected in flow through peak by ELISA” value is “No Factor IX was detected”; the “Factor IX in NaCl wash and acid peak by Western blot” value is “dark bands corresponding to Factor IX”. The “Factor IX in flow-through fractions by Western blot” value on Factor IX zymogen [4] (220 μg Factor IX in HSA) is “no detectable Factor IX”. In addition, the “binding of Factor IX to peptide-resin” value on Factor IX zymogen [4] (Factor IX in 0.5% HSA, acid elution) is “does bind Factor IX”.
Take YNYFNQ: the “bead staining in library immunoassay (red = target specific)” value on Factor IX zymogen [2] was “red bead”.
Ac-YANKGY [acetyl-YANKGY-TSK]: on Factor IX zymogen [3], the “Factor IX in acid peak by Western blot” value was “a very large band in the acid peak” and the “Factor IX in flow through by Western blot” value was “no Factor IX in the flow through”.
On to HPQ, for which the binding to streptavidin entry on streptavidin is on record as “will bind streptavidin”.
In the case of YNFEVL [YNFEVL-TSK], the “frequency of dark blue beads (non-specific or immunoreagent-specific interactions)” value in assay [5] is reported as “less than 0.01%”. For the same substance, the “frequency of red beads (target protein interacting with peptide-resin beads)” value in assay [5] (RNase S protein in HSA carrier) was found to be 5%. At RNase S protein, the “elution of bound RNase S protein” value was “target protein eluted in the acid wash”.
